Source: paper PMC4368189, “YCZ-18 Is a New Brassinosteroid Biosynthesis Inhibitor” (PLoS ONE, 2015)
pKd: −log10 of the molar value.

Biological target: T1, CYP90D1 (Arabidopsis thaliana, UniProt Q94IA6)
T1 construct: CYP90D1 mature protein, expressed in E. coli from pCold-GST; fusion cleaved with HRV3C protease
T1 sequence (Q94IA6 1-491): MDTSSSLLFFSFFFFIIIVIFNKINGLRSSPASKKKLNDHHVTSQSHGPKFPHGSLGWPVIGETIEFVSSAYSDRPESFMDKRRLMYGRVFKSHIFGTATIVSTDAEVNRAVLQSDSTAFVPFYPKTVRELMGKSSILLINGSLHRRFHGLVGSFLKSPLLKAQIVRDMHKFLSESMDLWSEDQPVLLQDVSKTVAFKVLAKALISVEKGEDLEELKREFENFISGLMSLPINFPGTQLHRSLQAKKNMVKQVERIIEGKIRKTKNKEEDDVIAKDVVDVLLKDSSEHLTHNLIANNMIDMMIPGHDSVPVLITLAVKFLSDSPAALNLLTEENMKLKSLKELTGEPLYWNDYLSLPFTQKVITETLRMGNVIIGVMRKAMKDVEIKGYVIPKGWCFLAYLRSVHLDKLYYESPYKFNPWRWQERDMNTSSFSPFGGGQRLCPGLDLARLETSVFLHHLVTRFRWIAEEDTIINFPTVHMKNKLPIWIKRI
Experiment: optical difference spectroscopy (type II binding spectrum) titration of purified recombinant CYP90D1

pKd: ~6.10
SMILES: CCOc1ccccc1OCC1COC(Cn2cncn2)(c2ccc(Cl)cc2)O1 (stereo not shown) [YCZ-18]
